Target: T1, human-derived receptor TLR7 (Homo sapiens, UniProt Q9NYK1)
T1 construct: host or cells: HEK-Blue hTLR7 cells (HEK293-derived reporter line)
T1 sequence (Q9NYK1 27-1049): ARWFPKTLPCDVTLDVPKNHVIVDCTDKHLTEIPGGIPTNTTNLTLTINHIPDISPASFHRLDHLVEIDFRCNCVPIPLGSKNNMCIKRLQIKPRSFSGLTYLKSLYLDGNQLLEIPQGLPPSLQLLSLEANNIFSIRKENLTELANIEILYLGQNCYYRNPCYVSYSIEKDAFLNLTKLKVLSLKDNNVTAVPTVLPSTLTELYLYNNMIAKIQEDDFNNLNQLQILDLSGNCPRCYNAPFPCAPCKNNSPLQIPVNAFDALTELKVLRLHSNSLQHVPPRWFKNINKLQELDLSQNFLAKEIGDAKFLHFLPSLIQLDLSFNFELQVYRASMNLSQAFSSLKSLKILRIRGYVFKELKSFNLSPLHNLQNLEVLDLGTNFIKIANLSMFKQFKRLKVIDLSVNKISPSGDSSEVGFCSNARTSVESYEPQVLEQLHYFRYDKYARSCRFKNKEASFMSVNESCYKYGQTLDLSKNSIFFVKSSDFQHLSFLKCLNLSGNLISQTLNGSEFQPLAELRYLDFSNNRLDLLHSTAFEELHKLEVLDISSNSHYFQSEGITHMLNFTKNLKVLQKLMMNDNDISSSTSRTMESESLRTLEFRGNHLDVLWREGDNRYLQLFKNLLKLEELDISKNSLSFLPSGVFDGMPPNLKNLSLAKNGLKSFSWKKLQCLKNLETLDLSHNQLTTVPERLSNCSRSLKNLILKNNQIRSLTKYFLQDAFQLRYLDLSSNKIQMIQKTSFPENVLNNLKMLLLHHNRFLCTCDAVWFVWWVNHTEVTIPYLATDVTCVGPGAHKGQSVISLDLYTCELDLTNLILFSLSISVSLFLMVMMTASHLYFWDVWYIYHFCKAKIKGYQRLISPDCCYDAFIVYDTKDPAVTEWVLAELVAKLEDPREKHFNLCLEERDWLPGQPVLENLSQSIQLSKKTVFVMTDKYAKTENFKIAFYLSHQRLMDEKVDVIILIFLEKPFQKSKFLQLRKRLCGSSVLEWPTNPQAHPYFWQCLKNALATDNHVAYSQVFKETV
Test: Assay on agonistic activity for human-derived receptor TLR7 (HEK-Blue hTLR7 cells, HEK-Blue Detection Medium)
Assay type: cell-based
Conditions: 16 h incubation, absorbance at 655 nm, read-out: EC50
Description: HEK-Blue™ hTLR7 cells (InvivoGen, hkb-htlr7) were cultured in a DMEM complete medium (Gibco, 12100) containing 10% FBS (Invitrogen, 10099141), 1% P/S (Invitrogen, 15140122), 10 μg/mL Blasticidin (InvivoGen, ant-bl-1), 100 μg/mL Zeocin (InvivoGen, ant-zn-1), and 100 μg/mL Normocin (InvivoGen, ant-nr-1). The cells were cultured in an incubator at 37° C. with 5% CO2. When HEK-Blue™ hTLR7 cells reached a growth density of 70%-80%, cell passage was needed.
The agonistic activity for the human-derived receptor TLR7 by HEK-Blue™ hTLR7 cells was assayed by HEK-Blue™ Detection Medium (InvivoGen, hd-det2). First, a bag of HEK-Blue™ Detection Medium powder was dissolved in 50 mL of ultra-pure sterile water for complete dissolution, and then the dissolved medium was filtered into a new 50 mL centrifuge tube through a 0.22 μm filter. Finally, antibiotics were added into the filtered detection medium until the final concentration was 1% for P/S and 100 μg/mL for Normocin. HEK-Blue™ Detection Medium was pre-heated to 37° C. in advance on the day of the assay on the activity for the TLR7 receptor, and the temperature was always maintained at 37° C.
The compound powder was dissolved in 100% DMSO (Sigma, D2650-100ML) to obtain a 10 mM stock solution, and the compound was completely dissolved by shaking with an oscillator. The stock solution of the compound was subjected to a 5-fold dilution to 2 mM with 100% DMSO. This was followed by a 3-fold serial dilution for a total of 8 concentration gradients. Then, each of the concentration gradients was subjected to a 20-fold dilution to 100 μM, 33.3 μM, 11.1 μM, 3.7 μM, 1.23 μM, […], 0.114 μM, and 0.05 μM using HEK-Blue™ Detection Medium. 20 μL of each of the dilutions was added to a 96-well cell culture plate (Corning, 3599).
On the day of the assay on the agonistic activity for the human-detived receptor TLR7, HEK-Blue™ hTLR7 cells has a growth density of 70%-80%, and the cell medium was removed. 1 mL of cell dissociation buffer (Gibco, 13151-014) was added to each 100 mm cell culture dish, and the cells were incubated in an incubator at 37° C. for 5 min. The cells were pipetted using a DMEM cell medium to obtain a single cell suspension, which was then centrifuged at 1000 rpm for 10 min to collect the cell pellet. The cell pellet was resuspended with HEK-Blue™ Detection Medium pre heated to 37° C. The cells were counted and diluted to 220,000 cells/mL. Finally, 180 μL of cell suspension (40,000 cells/well) was added to each well of the 96-well cell culture plate to which the compound had been added, and the cell suspension was mixed with the compound using a pipettor. Final concentrations of the compound were 10 μM, 3.3 μM, 1.1 μM, 0.37 μM, 0.12 μM, 0.04 μM, 0.01 μM, and 0.005 μM. After incubation in an incubator at 37° C. for 16 h, the absorbance was read at 655 nm using an M5e microplate reader (MD, USA).
The EC50 of the compound was calculated using the software GraphPad Prism (GraphPad Software, USA). The background reading of the detection culture was subtracted from the absorbance readings at 655 nm of all wells of the 96-well plate, the ratio of each well to the negative control well (the well without the compound) was calculated, and then the percentage of the ratio of each well to the positive control well (the well treated with 10 μM positive compound), i.e., the percentage of activity, was calculated. Finally, the sigmoidal dose-response (variable slope) curve between the percentage of activity and the concentration of the compound was calculated using the software GraphPad Prism to calculate the EC50 of the compound. […]

Compared with `C=CCSc1nc2c(N)nc3ccccc3c2n1Cc1ccc(CN2CC[C@H](F)C2)cc1` [Example 210], `CCSc1nc2c(N)nc3ccccc3c2n1Cc1ccc(CN2CCCC2)cc1` [Example 156] is lower in EC50: 50 to 100 nM for the first, under 50 nM for the second.

First: CCCCOc1nc(N)c2c(n1)N(Cc1ccc(Oc3ccc(CNC)cc3)cc1)CC(=O)N2 [Example 252, 4-amino-2-butoxy-8-(4-(4-((methylamino)methyl)phenoxy)benzyl)-7,8-dihydropteridin-6(5H)-one]
Second: CCCCOc1nc(N)c2c(n1)CN(Cc1ccc(Cn3ccnc3)c(C)c1)C(=O)N2 [Example 76]
The EC50 of the first is lower: under 50 nM for the first, 50 to 100 nM for the second.

First: CCCCOc1nc(N)c2[nH]c(=O)n(Cc3ccc(CN4CCN(C(=O)CN)CC4)s3)c2n1 [Example 45, 6-amino-2-butoxy-9-((5-((4-glycylpiperazin-1-yl)methyl)thien-2-yl)methyl)-7,9-dihydro-8H-purin-8-one]
Second: CCCCSc1nc2c(N)nc3ccccc3c2n1Cc1ccc(CN2CCCC2)cc1 [Example 161]
The EC50 of the first is lower: under 50 nM for the first, 50 to 100 nM for the second. The first is the more potent here.

`COc1cc(CN2CCNCC2)ccc1Cn1c(SC)nc2c(N)nc3ccccc3c21` [Example 238] and `CCSc1nc2c(N)nc3ccccc3c2n1Cc1ccc(CN(C)C)cc1` [Example 190] fall in the same range of EC50: 50 to 100 nM for the first, 50 to 100 nM for the second.

From patent publication US20240150346A1, “CLASS OF HETEROAROMATIC COMPOUND, PREPARATION METHOD THEREFOR AND USE THEREOF” (INNOVSTONE THERAPEUTICS LIMITED, priority 2021, published 2024)
